Experimental data: ChEMBL document CHEMBL1148934, “Antitubercular sesterterpenes from the Thai sponge Brachiaster sp” (J Nat Prod, 2004)
Converted amounts (≈) assume the structure as drawn.

Key:
MCF7 [1] = assay: Cytotoxicity against human MCF7 cells by SRB assay; type: functional, cell-based
HT-29 [2] = assay: Cytotoxicity against human HT29 cells by SRB assay; type: functional, cell-based
KB [3] = assay: Cytotoxicity against human KB cells by SRB assay; type: functional, cell-based
HeLa [4] = assay: Cytotoxicity against human HeLa cells by SRB assay; type: functional, cell-based
[5] = test system: Mycobacterium tuberculosis; assay: Antitubercular activity against Mycobacterium tuberculosis H37Ra ATCC 25177 after 4 days by microtiter plate alamar blue technique; type: functional, organism-based; settings: 96 h
HeLa [6] = assay: Cytotoxicity against human HeLa cells at 10 uM by SRB assay; type: functional
HT-29 [7] = assay: Cytotoxicity against human HT29 cells at 10 uM by SRB assay; type: functional
KB [8] = assay: Cytotoxicity against human KB cells at 10 uM by SRB assay; type: functional
MCF7 [9] = assay: Cytotoxicity against human MCF7 cells at 10 uM by SRB assay; type: functional
[10] = test system: Mycobacterium tuberculosis; assay: Antimycobacterial activity against Mycobacterium tuberculosis H37Rv; type: functional

CC1(C)CCC[C@]2(C)[C@H]3C[C@@H](O)[C@]4(C)[C@H]5COC(=O)C5=CC[C@H]4[C@]3(C)CC[C@@H]12
IC50 (MCF7 [1]): 320 nM
IC50 (HT-29 [2]): 910 nM
IC50 (KB [3]): 750 nM
IC50 (HeLa [4]): 1990 nM
MIC [5]: 16 µM (≈ 6.19 µg/mL)

CC(=O)OCC1=CC(=O)O[C@@H]1C/C=C(\CC/C=C(\C)CCC1=C(C)CCCC1(C)C)COC(C)=O
IC50 (MCF7 [1]): 9340 nM
Activity (HeLa [6]): 80%
MIC [5]: 51 µM (≈ 24.8 µg/mL)
Activity (HT-29 [7]): 80%
Activity (KB [8]): 80%

CC(=O)O[C@@H]1C[C@@H]2[C@@]3(C)CCCC(C)(C)[C@@H]3CC[C@@]2(C)[C@@H]2CC=C3C(=O)OC[C@@H]3[C@@]12C
IC50 (HT-29 [2]): 2340 nM
IC50 (KB [3]): 3010 nM
IC50 (HeLa [4]): 5490 nM
IC50 [5]: 117000 nM

CC(=O)O[C@@H]1OC(=O)C=C1[C@H]1CC=C(CC/C=C(\C)CCC2=C(C)CCCC2(C)C)[C@H](O)O1
IC50 (MCF7 [1]): 260 nM
IC50 (HT-29 [2]): 760 nM
IC50 (KB [3]): 630 nM
IC50 (HeLa [4]): 1680 nM
MIC [5]: 7 µM (≈ 3.21 µg/mL)

CC(=O)O[C@@H]1OC(=O)C2=CC[C@H]3[C@]4(C)CC[C@H]5C(C)(C)CCC[C@]5(C)[C@H]4CC[C@]3(C)[C@H]21
Activity (HeLa [6]): 80%
MIC [5]: 4 µM (≈ 1.71 µg/mL)
Activity (HT-29 [7]): 80%
Activity (MCF7 [9]): 80%
Activity (KB [8]): 80%

CC(=O)OCC1=CC(=O)O[C@@H]1C/C=C(/CC/C=C(\C)CCC1=C(C)CCCC1(C)C)COC(C)=O
IC50 (MCF7 [1]): 5990 nM
Activity (HeLa [6]): 80%
MIC [5]: 26 µM (≈ 12.7 µg/mL)
Activity (HT-29 [7]): 80%
Activity (KB [8]): 80%

CC(=O)O[C@@H]1OC=C2[C@@H](OC(C)=O)C[C@H]3[C@]4(C)CC[C@H]5C(C)(C)CCC[C@]5(C)[C@H]4C[C@@H](OC(C)=O)[C@]3(C)[C@H]21 [HETERONEMIN ACETATE]
IC50 (MCF7 [1]): 6450 nM
Activity (HeLa [6]): 80%
MIC [5]: 6 µM
Activity (HT-29 [7]): 80%
Activity (KB [8]): 80%

CC(=O)O[C@@H]1OC=C2[C@@H](OC(C)=O)C[C@H]3[C@]4(C)CC[C@H]5C(C)(C)CCC[C@]5(C)[C@H]4C[C@@H](O)[C@]3(C)[C@H]21 [HETERONEMIN]
IC50 (MCF7 [1]): 290 nM
IC50 (HT-29 [2]): 390 nM
MIC [10]: 6.25 µg/mL (≈ 12.8 µM)
IC50 (KB [3]): 370 nM
IC50 (HeLa [4]): 450 nM
MIC [5]: 3 µM (≈ 1.47 µg/mL)

NNC(=O)c1ccncc1 [ISONIAZID]
MIC [5]: 0.29 µM (≈ 0.0398 µg/mL)

NC[C@H]1O[C@H](O[C@H]2[C@H](O)[C@@H](O[C@H]3O[C@H](CO)[C@@H](O)[C@H](N)[C@H]3O)[C@H](N)C[C@@H]2N)[C@H](O)[C@@H](O)[C@@H]1O [KANAMYCIN]
MIC [5]: 3.5 µM (≈ 1.7 µg/mL)
